Data reported in patent publication US11382985B2, “Anti-tumour immune responses to modified self-epitopes” (Scancell Limited, priority 2015, dated 2022).
Square brackets hold non-standard residues; d marks the D form. Ends that are not written are not given here. Cit = NC(=O)NCCC[C@H](N)C(=O)O

Key:
[1] = tested on: splenocytes; assay: Peptide immunisation and ex vivo Elispot, DR4 mice; type: in vivo, HLA-DR4 transgenic mouse
Method: (§1) C57BL/6 mice (Charles River, UK), HLA-DR4 mice (Taconic, USA), HHDII/DR1 mice (Pasteur institute, France) and the HHD/HLA-DP4 transgenic strain of mouse as described in patent WO2013/017545 A1 (EMMA repository, France) were used, aged between 8 and 12 weeks, and cared for by the staff at Nottingham Trent University. All work was carried out under a Home Office project licence. Peptides were dissolved in PBS to 1 mg/ml and then emulsified (a series of dilutions) with different adjuvants: CpG and MPLA 6 μg/mouse of each (Invivogen, UK), Incomplete Freund's 50 μl/mouse (Sigma, UK), poly I:C 10 μg/mouse (Invivogen, UK), Imiquimod 25 μg/mouse (Invivogen, UK) and GMCSF 10 μg/mouse (Peprotech, UK). Peptides (25 μg/mouse) were injected subcutaneously at the base of the tail. DNA (1 μg/mouse) was coated onto 1.0 μm gold particles (BioRad, Hemel Hempstead, UK) using the manufacturer's instructions and administered intradermally by genegun (BioRad). Homspera (10 nM/mouse) (PeptideSynthetics, UK) was injected intradermally with genegun immunisation. Mice were immunized at either day 0 for peptide immunisation or days, 0 and 7 for genegun immunisation, unless otherwise stated. Spleens were removed for analysis at day 14 for peptide and day 20 for peptide or genegun immunisation unless stated otherwise.
(§2) Elispot assays were performed using murine IFNγ, IL-17 and IL-10 capture and detection reagents according to the manufacturer's instructions (Mabtech, Sweden). In brief, anti-IFNγ, IL-17 and IL-10 antibodies were coated onto wells of 96-well Immobilin-P plate. Synthetic peptides (at a variety of concentrations) and 5×10^5 per well splenocytes were added to the wells of the plate in triplicate. Tumour target cells were added where relevant at 5×10^4/well in triplicate and plates incubated for 40 hrs at 37° C. After incubation, captured IFN and IL-10 were detected by biotinylated anti-IFNγ and IL-10 antibodies and developed with a streptavidin alkaline phosphatase and chromogenic substrate. Spots were analysed and counted using an automated plate reader (Cellular Technologies Ltd).

[2] = tested on: splenocytes; assay: Peptide immunisation and ex vivo Elispot, DP4 mice; type: in vivo, HHD/HLA-DP4 transgenic mouse
Method: as §1, §2

[3] = tested on: Pan02 DR4; assay: Pan02 DR4 pancreatic tumour challenge; type: in vivo, DR4 transgenic mice; conditions: peptide immunisation 4 days after tumour challenge; none of unimmunized survived
[4] = tested on: B16DR4 tumour; assay: B16DR4 melanoma tumour challenge; type: in vivo, DR4 mice
Method: as §1
For tumour challenge experiments mice were challenged with 2.5×10^4 B16 DR4 cells or 1×10^6 LLC2/LLC2 DR4 cells, 2.5×10^5 Pan02 DR4 cells in matrigel or 4×10^5 B16 HHDII DP4 cells subcutaneously on the right flank 3 days prior to primary immunisation and then were immunised as above. Tumour growth was monitored at 3-4 days intervals and mice were humanely euthanized once tumour reached ≥10 mm in diameter.

[5] = tested on: PBMCs; assay: Thymidine proliferation assay on healthy donor PBMCs; type: cell-based, human; conditions: for healthy donors showing a proliferative response: PBMCs from 6 healthy donors, peptide 10 μg/ml, days 4, 7, 11
Method: PBMC were isolated from freshly drawn heparinised blood by Ficol-Hypaque (Sigma) gradient centrifugation. PBMC (1.5×10^6 cells/well) were stimulated with single peptides (final concentration 10 μg/ml) in RPMI containing 5% pooled autologous human serum, 2 mM glutamine, 20 mM HEPES and Penicillin-streptomycin (1%) in a final volume of 2 ml. Stimulation with purified protein derivative, PPD (final concentration 10 μg/ml) served as a positive control for the proliferative capacity of PBMC. As a negative control PBMC were incubated with medium alone. The PBMC were cultured at 37° C. in an atmosphere of 5% CO2 for 4, 7 and 11 days. To assess proliferation at these times points 100 μl in triplicate from each culture was aliquoted into a round bottom well of a 96 well plate and 3H-thymidine added (0.0185 MBq/well) and incubated at 37° C. for a further 8 hours. The cultures were harvested onto unifilter plates and incorporation of ^3H-thymidine was determined by β-scintillation counting. The results were assessed by calculating the stimulation index (SI) as the ratio of the mean of counts per minute (cpm) of epitope-stimulated to the mean of unstimulated cultures. The proliferative assay was considered positive when SI >2.5.

[6] = tested on: B16iDR4; assay: B16 tumour with IFNγ inducible DR4 (B16iDR4) challenge; type: in vivo, DR4 mice
Method: as §1
For tumour challenge experiments mice were challenged with 2.5×10^4 B16 DR4 cells or 1×10^6 LLC2/LLC2 DR4 cells, 2.5×10^5 Pan02 DR4 cells in matrigel or […] above. Tumour growth was monitored at 3-4 days intervals and mice were humanely euthanized once tumour reached ≥10 mm in diameter.

[7] = tested on: parental LLC2 tumour; assay: Parental Lewis lung carcinoma LLC2 challenge; type: in vivo, DR4 mice; conditions: challenge four days before peptide immunisation
Method: as §1, with “Mice were immunized at either day 0 for peptide immunisation or days, 0 and 7 for genegun immunisation, unless otherwise stated. Spleens were removed for analysis at day 14 for peptide and day 20 for peptide or genegun immunisation unless stated otherwise.” left out
For tumour challenge experiments mice were challenged with 2.5×10^4 B16 DR4 cells or 1×10^6 LLC2/LLC2 DR4 cells, […] above. Tumour growth was monitored at 3-4 days intervals and mice were humanely euthanized once tumour reached ≥10 mm in diameter.

[8] = tested on: splenocytes; assay: Peptide immunisation and ex vivo Elispot, DP4 mice; type: in vivo, HHD/HLA-DP4 transgenic mouse; conditions: DP4 mice immunised with human 241-260cit
[9] = DR4 mice immunised with human 241cit
[10] = DR4 mice, single immunisation 25 μg human 241cit + CpG/MPLA
[11] = DP4 mice immunised with human 241-260cit

## VIGMDVAASEFF-CIT-SGKYDLD (VIGMDVAASEFF[Cit]SGKYDLD; listed as Homo sapiens) [Enolase 241cit]
[1]; 1 or 3 doses with 25 μg of peptide
  IFN response with GM-CSF: Detectable responses
[1]; [9]
  IFNγ response in CD4 depleted fraction: not
  IFNγ response in CD4 enriched fraction: present
  IFNγ response in presence of CD4 blocking antibody (GK1.5): significantly reduced
[1]; DR4 mice immunised with human 241cit, ex vivo IL-10 ELISpot
  IL-10 production in response to peptide stimulation: No significant increase in IL-10 production
[1]; DR4 mice immunised with human 241cit, label = restimulating peptide
  IFNγ response in presence of human MHC class II blocking antibody (L243): significantly reduced
[1]; DR4 mice, single dose
  IFNγ response with adjuvant CpG/MPLA: detected
  IFNγ response with adjuvant IFA: no IFNγ response
  IL-10 response with adjuvant CpG/MPLA: not
  IL-10 response with adjuvant IFA: detected
[1]; DR4 mice, single dose in CpG/MPLA
  IFNγ responses after 6 and 14 days compared to after 2 days: significantly increased
[1]; DR4 mice, single dose in CpG/MPLA, sacrificed after 2, 6 or 14 days
  time after immunisation at which IFNγ response is detectable: 6 days
[1]; [10]
  IFNγ response to human citrullinated sequence compared to media: significant IFNγ response
  IFNγ response to mouse citrullinated sequence compared to media: significant IFNγ response
  immune response to human or mouse wild type (wt) sequence: neither
[1]; DR4 transgenic mice
  IFNγ response in combination with poly I:C: induces IFNγ responses
  IL-10 response in combination with poly I:C: no IL-10
[1]; peptide immunisation without adjuvant
  response in the absence of adjuvant: no response
[2]; [11]
  IFNγ response in presence of CD4 blocking antibody: blocked
  IFNγ response in presence of CD8 blocking antibody: not
  IFNγ response to shorter peptide spanning aa241-255: show cross reactivity
  IL-10 in response to the cit peptide: no IL-10
[2]; DP4 mice, three doses of human Enolase 241cit, label = restimulating peptide
  IFNγ response compared to the wild type peptides: increased IFNγ responses
[2]; DP4 transgenic mice
  IFNγ response in combination with imiquimod: induces IFNγ responses
  IFNγ response in combination with poly I:C: induces IFNγ responses
  IL-10 response in combination with poly I:C: no IL-10
[3]
  survival at day 60: 50%
[4]; B16DR4 challenge, three doses of 5 μg in GM-CSF over three weeks, control 0% by day 28
  animals surviving at day 45: 70%
[4]; peptide immunisation after B16DR4 implant, control median 49 mm^3
  tumour volume, median, day 17 post tumour implant: 0 mm^3
[4]; peptide immunisation after B16DR4 implant, unimmunised 15%
  survival after 45 days: 50%
[5]; Donor 1, day 4
  proliferation index, mean: 0.8
[5]; Donor 1, day 7
  proliferation index, mean: 28.6
[5]; Donor 1, day 11
  proliferation index, mean: 20.4
[5]; Donor 2, day 11
  proliferation index, mean: 2.7
[5]; Donor 4, day 4
  proliferation index, mean: 12.5
[5]; Donor 4, day 7
  proliferation index, mean: 28
[5]; Donor 4, day 11
  proliferation index: 4.4
[5]; Donor 6
  proliferative response: non-responder
[5]
  healthy donors showing a proliferative response: 5/6
[5]; listed as Enolase 241-260 citrullinated at position 253
  healthy donors showing a proliferative response: 4/6
[6]; challenge 4 days prior to peptide immunisation, control 0%
  survival at day 42: 90%
[6]; challenge 4 days prior to peptide immunisation, control median 65 mm^3
  tumour volume, median, day 17 post tumour implant: 0 mm^3
[6]; immunised survivors rechallenged with B16iDR4 at day 42, all controls dead by day 29
  survival 39 days after rechallenge: 67%
[7]
  survival time versus unimmunised control: small but significant increase in survival time
[8]
  granzyme B release in response to the cit peptide: show granzyme B release
